Data as given in US11597936B2, “Recombinant Dgkk gene for fragile X syndrome gene therapy” (UNIVERSITE DE STRASBOURG, priority 2016, dated 2023).

Tests used:
[1] = test system: Cos-1 cells; experiment: Western blot (anti-HA) of Dgkk constructs in Cos-1 cells, siFmr1 versus siRNA control; assay type: cell-based; settings: siFmr1 vs siCtrl, HA signal normalized to GAPDH
Experimental: COS cells (ATCC® CRL-1650™) were grown in DMEM supplemented with 10% fetal calf serum, 1 g/l glucose in the presence of antibiotics at 37° C. in 5% CO2. The day before transfection, 4×10^4 cells were plated into 24-well format plates in 500 μl of antibiotic-free medium.
Transfections of sh-RNAs were performed in triplicate with Lipofectamine 2000 (Invitrogen, Carlsbad, Calif.) on 60 000 cells as directed by the manufacturer with 20 pmol of siRNA (Control or On Target plus Smart Pool mouse FMR1, Thermo) in a final volume of 600 μl. Twenty-four hours later, 0.6 μg of a plasmid construction and 20 pmol of shRNA were co-transfected as above. Fourty-eight hours later, cells washed twice in PBS were lysed directly in the loading buffer (100 mM Tris-HCl, pH 6.8, 4% SDS, 30% glycerol, 1.4 M ß-mercaptoethanol, and bromophenol blue) for 3 min at 95° C. Proteins were analyzed on a 10% SDS-polyacrylamide gel and immunoblotted onto PVDF (Millipore) in Tris-glycine-SDS/20% ethanol buffer for 1 h at 200 mA. […]
In a second series of experiments, the inventors aimed to determine which part of the 5′ region of Dgkk is important in the control of Dgkk expression by FMRP. […] Then, as previously described, Cos-1 cells were transfected by these constructs in the presence or absence of Fmr1 siRNA and the expression of the constructs was analyzed by western-blot.

[2] = test system: CA1 pyramidal neurons; experiment: Dendritic spine morphology and dynamics in hippocampal organotypic slice cultures; assay type: cell-based, mouse
Source text: A short hairpin RNA designed to target Dgkk (shRNA Dgkk, 5′-[…], SEQ ID No: 6) and the selected shRNA-scramble sequence (5′-[…], SEQ ID No: 7) that has no match in silico in the mouse genome, were cloned under the control of the mU6 promoter into a pAAV-MCS derived plasmid expressing enhanced green fluorescent protein (EGFP) under the control of a CMV promoter. Overexpression of Dgkk was achieved by cloning HA-tagged Δ5′reg-Dgkk under the control of the human Synapsin-1 gene promoter replacing EGFP in the control plasmid pENN.AAV.hSynapsin1.EGFP.RBG (provided by the Penn Vector Core at University of Pennsylvania). Recombinant adeno-associated virus serotype 9 (AAV9) co-expressing EGFP and shRNA (AAV9-EGFP-shRNA-Dgkk and control AAV9-EGFP-shRNA-scramble) as well as AAV9 expressing HA-Dgkk or EGFP (AAV9-hSynapsin1-HA-Dgkk and control AAV9-hSynapsin1-EGFP) were generated. AAV production was carried out using the AAV Helper-Free system (Agilent Technologies) with some modifications. AAV9 vectors were generated by triple transfection of 293T/17 cell line using either pAAV-EGFP-shRNA-Dgkk or pAAV-EGFP-shRNA-scramble, pAAV-hSynapsin1-HA-Δ5′reg-Dgkk or pENN.AAV.hSynapsin1.EGFP.RBG together with pAAV2/9 (Penn Vector Core) containing cap genes of AAV serotype 9 and pHelper. Two days after transfection, cells were collected, lysed by three freeze/thaw cycles in dry ice-ethanol and 37° C. baths, further treated with 100 U/ml Benzonase (Novagen) for 30 min at 37° C. and clarified by centrifugation. Viral vectors were purified by iodixanol (Optiprep™, Axis Shield) gradient ultracentrifugation followed by dialysis and concentration against PBS containing 0.5 mM MgCl2 using centrifugal filters (Amicon Ultra-15 100 K). Viral particles were quantified by real time PCR using a linearized standard plasmid pAAV-EGFP.
Hippocampal organotypic slice cultures (400 μm thick) were prepared from postnatal 5-6 day old C57BL/6 Fmr1+/y or its Fmr1−/y littermate mice using a protocol approved by the Geneva veterinary office and maintained under culture conditions as described (De Roo M et al, 2008, Cereb Cortex, 18(1):151-161). Transfection was carried out at DIV7 with a biolistic method (Helios Gene Gun, Bio-Rad) using gold beads coated with mRFP and either pAAV-EGFP-shRNA-Dgkk, pAAV-EGFP-shRNA-scramble, pAAV-hSynapsin1-EGFP or pAAV-hSynapsin1-HA-[…]. Repetitive confocal imaging was performed as previously described (De Roo M et al, 2008, Cereb Cortex, 18(1):151-161). Briefly, dendritic segments of CA1 transfected neurons (30-40 μm in length) were imaged from DIV12 to DIV15 (at 0, 5, 24, 48 and 72 hours) using an Olympus Fluoview 300 system and analysis of the Z-stacked images so obtained was performed using Osirix software.

[3] = versus shRNA-scramble transfected cells

For “Dgkk-FL: plasmid carrying all mouse Dgkk exons, its 5′UTR, its 3′UTR and a HA tag (SEQ ID No: 8)”, the “reduction of the expression level of the construct when FMRP expression is reduced” value [1] was “about 70%”.

“shRNA-Dgkk: short hairpin RNA designed to target Dgkk (SEQ ID No: 6), in pAAV plasmid expressing EGFP (guide GGAATGCACTACTGGTATTCC; shRNA hairpin expressed from pAAV-EGFP vector)” was tested, and the spine density ([2]; CA1 pyramidal neurons, biolistic transfection) was “Absence of changes”, the “lost spines per 24 h” value [2, 3] was “Increase” and the multi-head spines [2, 3] was “Increase”. For the same substance, the mushroom spines [2, 3] was “decrease” and the “new spine formation per 24 h” value [2, 3] was “Increase”.
